molecular target: T1, ER (Homo sapiens, UniProt P03372); assay: ER degradation activity, in-cell western blot analysis in T47D cells; type: cell-based; conditions: 16 hours, Table A does not say which cell line (T47D or MCF7), read-out: Potency (DC50)
T1 construct: host or cells: T47D and MCF7 human breast cancer cells
T1 sequence (P03372 1-595): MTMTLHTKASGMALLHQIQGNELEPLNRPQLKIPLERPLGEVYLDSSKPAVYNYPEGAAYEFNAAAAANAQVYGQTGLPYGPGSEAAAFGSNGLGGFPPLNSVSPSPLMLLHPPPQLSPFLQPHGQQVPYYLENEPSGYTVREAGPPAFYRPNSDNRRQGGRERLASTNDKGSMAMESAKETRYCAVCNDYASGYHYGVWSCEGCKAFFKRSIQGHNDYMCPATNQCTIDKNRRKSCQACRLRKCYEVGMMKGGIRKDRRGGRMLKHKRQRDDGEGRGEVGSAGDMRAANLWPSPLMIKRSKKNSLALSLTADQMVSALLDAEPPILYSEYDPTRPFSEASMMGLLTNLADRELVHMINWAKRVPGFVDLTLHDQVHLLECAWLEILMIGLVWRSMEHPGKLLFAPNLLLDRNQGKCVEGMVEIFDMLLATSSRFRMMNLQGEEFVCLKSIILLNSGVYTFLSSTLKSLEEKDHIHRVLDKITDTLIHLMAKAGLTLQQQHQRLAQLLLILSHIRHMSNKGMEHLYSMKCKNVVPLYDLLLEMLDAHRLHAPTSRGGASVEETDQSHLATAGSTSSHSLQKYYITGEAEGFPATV
Summary of the method: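 Read-out is near-infrared fluorescence from an in-cell western, expressed as ER percentage relative to untreated and DMSO controls taken as 100%. T47D breast cancer cells received compound for 16 h in 0.5% DMSO.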

| DC50 [nM] | Compound |
| --- | --- |
| < 10 | C[C@@H]1Cc2c([nH]c3ccccc23)[C@@H](c2c(F)cc(N3CCC4(CCN(C(=O)CN5Cc6cc7c(cc6C5)C(=O)N(C5CCC(=O)NC5=O)C7=O)CC4)C3)cc2F)N1CC(F)F (stereo partly drawn) [E 135, 6-(2-(2-(4-((1R,3R)-2-(2,2-difluoroethyl)-3-methyl-2,3,4,9-tetrahydro-1H-pyrido[3,4-b]indol-1-yl)-3,5-difluorophenyl)-2,8-diazaspiro[4.5]decan-8-yl)-2-oxoethyl)-2-(2,6-dioxopiperidin-3-yl)-6,7-dihydropyrrolo[3,4-f]isoindole-1,3(2H,5H)-dione] |
| 10 to 100 | C[C@H]1CC2(CCN(c3ccc([C@@H]4c5ccc(O)cc5CC[C@@H]4c4ccccc4)cc3)CC2)CN1C(=O)CN1Cc2cc3c(cc2C1)C(=O)N(C1CCC(=O)NC1=O)C3=O (mixture of isomers) [E 142, Rac-2-(2,6-dioxopiperidin-3-yl)-6-(2-((S)-8-(4-((1R,2S)-6-hydroxy-2-phenyl-1,2,3,4-tetrahydronaphthalen-1-yl)phenyl)-3-methyl-2,8-diazaspiro[4.5]decan-2-yl)-2-oxoethyl)-6,7-dihydropyrrolo[3,4-f]isoindole-1,3(2H,5H)-dione] |
| > 100 | C[C@@H]1Cc2c([nH]c3ccccc23)[C@H](c2c(F)cc(CN3CCC4(CCC(C(=O)N5Cc6cc7c(cc6C5)C(=O)N(C5CCC(=O)NC5=O)C7=O)CC4)CC3)cc2F)N1CC(F)F (stereo partly drawn) [E 383, 6-(3-(4-((1S,3R)-2-(2,2-difluoroethyl)-3-methyl-2,3,4,9-tetrahydro-1H-pyrido[3,4-b]indol-1-yl)-3,5-difluorobenzyl)-3-azaspiro[5.5]undecane-9-carbonyl)-2-(2,6-dioxopiperidin-3-yl)-6,7-dihydropyrrolo[3,4-f]isoindole-1,3(2H,5H)-dione] |
| 10 to 100 | C[C@@H]1Cc2c([nH]c3ccccc23)[C@@H](c2c(F)cc(N3CCC4(CCN(C(=O)CN5Cc6cc7c(cc6C5)C(=O)N(C5CCC(=O)NC5=O)C7=O)CC4)CC3)cc2F)N1CC(F)(F)F (stereo partly drawn) [E 226, 6-(2-(9-(3,5-difluoro-4-((1R,3R)-3-methyl-2-(2,2,2-trifluoroethyl)-2,3,4,9-tetrahydro-1H-pyrido[3,4-b]indol-1-yl)phenyl)-3,9-diazaspiro[5.5]undecan-3-yl)-2-oxoethyl)-2-(2,6-dioxopiperidin-3-yl)-6,7-dihydropyrrolo[3,4-f]isoindole-1,3(2H,5H)-dione] |
| > 100 | O=C1CCC(N2C(=O)c3cc4c(cc3C2=O)CN(C(=O)[C@H]2CC[C@H](N3CC(Nc5ccc([C@H]6c7ccc(O)cc7CC[C@H]6c6ccccc6)cc5)C3)CC2)C4)C(=O)N1 (stereo partly drawn) [E 391, 2-(2,6-dioxopiperidin-3-yl)-6-((1S,4r)-4-(3-((4-((1S,2R)-6-hydroxy-2-phenyl-1,2,3,4-tetrahydronaphthalen-1-yl)phenyl)amino)azetidin-1-yl)cyclohexane-1-carbonyl)-6,7-dihydropyrrolo[3,4-f]isoindole-1,3(2H,5H)-dione] |
| 10 to 100 | O=C1CCC(N2C(=O)c3cc4c(cc3C2=O)CN(C(=O)c2ccc(CC(=O)N3CCCC(Oc5ccc([C@@H]6c7ccc(O)cc7CC[C@@H]6c6ccccc6)cc5)C3)cc2)C4)C(=O)N1 (mixture of isomers) [E 24, Rac-2-(2,6-dioxopiperidin-3-yl)-6-(4-(2-(3-(4-((1R,2S)-6-hydroxy-2-phenyl-1,2,3,4-tetrahydronaphthalen-1-yl)phenoxy)piperidin-1-yl)-2-oxoethyl)benzoyl)-6,7-dihydropyrrolo[3,4-f]isoindole-1,3(2H,5H)-dione] |
| 10 to 100 | C[C@@H]1Cc2c([nH]c3ccccc23)[C@@H](c2c(F)cc(N3CCC(CN4CCC5(CC4)CC(N4Cc6cc7c(cc6C4)C(=O)N(C4CCC(=O)NC4=O)C7=O)C5)CC3)cc2F)N1CC(F)F (stereo partly drawn) [E 132, 6-(7-((1-(4-((1R,3R)-2-(2,2-difluoroethyl)-3-methyl-2,3,4,9-tetrahydro-1H-pyrido[3,4-b]indol-1-yl)-3,5-difluorophenyl)piperidin-4-yl)methyl)-7-azaspiro[3.5]nonan-2-yl)-2-(2,6-dioxopiperidin-3-yl)-6,7-dihydropyrrolo[3,4-f]isoindole-1,3(2H,5H)-dione] |
| > 100 | C[C@@H]1Cc2c([nH]c3ccccc23)[C@@H](c2c(F)cc(N3CC(F)(C(=O)N4CCC(F)(CN5Cc6cc7c(cc6C5)C(=O)N(C5CCC(=O)NC5=O)C7=O)CC4)C3)cc2F)N1CC(F)F (stereo partly drawn) [E 210, 6-((1-(1-(4-((1R,3R)-2-(2,2-difluoroethyl)-3-methyl-2,3,4,9-tetrahydro-1H-pyrido[3,4-b]indol-1-yl)-3,5-difluorophenyl)-3-fluoroazetidine-3-carbonyl)-4-fluoropiperidin-4-yl)methyl)-2-(2,6-dioxopiperidin-3-yl)-6,7-dihydropyrrolo[3,4-f]isoindole-1,3(2H,5H)-dione] |
| > 100 | O=C1CCC(N2C(=O)c3cc4c(cc3C2=O)CN(CC2CN(C(=O)C3CN(c5ccc([C@@H]6c7ccc(O)cc7CC[C@@H]6c6ccccc6)cc5)C3)C2)C4)C(=O)N1 (stereo partly drawn) [E 200, 2-(2,6-dioxopiperidin-3-yl)-6-((1-(1-(4-((1R,2S)-6-hydroxy-2-phenyl-1,2,3,4-tetrahydronaphthalen-1-yl)phenyl)azetidine-3-carbonyl)azetidin-3-yl)methyl)-6,7-dihydropyrrolo[3,4-f]isoindole-1,3(2H,5H)-dione] |
| > 100 | O=C1CCC(N2C(=O)c3cc4c(cc3C2=O)CN([C@H]2CC[C@@H](NC3CCN(c5ccc([C@@H]6c7ccc(O)cc7CC[C@@H]6c6ccccc6)cc5)CC3)CC2)C4)C(=O)N1 (stereo partly drawn) [E334, 2-(2,6-dioxopiperidin-3-yl)-6-((1S,4s)-4-((1-(4-((1R,2S)-6-hydroxy-2-phenyl-1,2,3,4-tetrahydronaphthalen-1-yl)phenyl)piperidin-4-yl)amino)cyclohexyl)-6,7-dihydropyrrolo[3,4-f]isoindole-1,3(2H,5H)-dione] |
| < 10 | O=C1CCC(N2C(=O)c3cc4c(cc3C2=O)CN(CC(=O)N2CC3(CCN(c5ccc([C@@H]6c7ccc(O)cc7CC[C@@H]6c6ccccc6)cc5)CC3)C2)C4)C(=O)N1 (stereo partly drawn) [E 148, 2-(2,6-dioxopiperidin-3-yl)-6-(2-(7-(4-((1R,2S)-6-hydroxy-2-phenyl-1,2,3,4-tetrahydronaphthalen-1-yl)phenyl)-2,7-diazaspiro[3.5]nonan-2-yl)-2-oxoethyl)-6,7-dihydropyrrolo[3,4-f]isoindole-1,3(2H,5H)-dione] |
| < 10 | C[C@@H]1Cc2c([nH]c3ccccc23)[C@@H](c2c(F)cc(-c3ccc(C(=O)N4CCC(N5Cc6cc7c(cc6C5)C(=O)N(C5CCC(=O)NC5=O)C7=O)CC4)cc3)cc2F)N1CC(F)F (stereo partly drawn) [E 347, 6-(1-(4′-((1R,3R)-2-(2,2-difluoroethyl)-3-methyl-2,3,4,9-tetrahydro-1H-pyrido[3,4-b]indol-1-yl)-3′,5′-difluoro-[1,1′-biphenyl]-4-carbonyl)piperidin-4-yl)-2-(2,6-dioxopiperidin-3-yl)-6,7-dihydropyrrolo[3,4-f]isoindole-1,3(2H,5H)-dione] |
| > 100 | O=C1CCC(N2C(=O)c3cc4c(cc3C2=O)CCN(CC(=O)N2CCC3(CC2)CCN(c2ccc([C@@H]5c6ccc(O)cc6CC[C@@H]5c5ccccc5)cc2)CC3)CC4)C(=O)N1 (stereo partly drawn) [E 166, 2-(2,6-dioxopiperidin-3-yl)-7-(2-(9-(4-((1R,2S)-6-hydroxy-2-phenyl-1,2,3,4-tetrahydronaphthalen-1-yl)phenyl)-3,9-diazaspiro[5.5]undecan-3-yl)-2-oxoethyl)-6,7,8,9-tetrahydroazepino[4,5-f]isoindole-1,3(2H,5H)-dione] |
| < 10 | O=C1CCC(N2Cc3cc4c(cc3C2=O)CN(CC(=O)N2CCC3(CC2)CN(c2ccc([C@@H]5c6ccc(O)cc6CC[C@@H]5c5ccccc5)cc2)C3)C4)C(=O)N1 (mixture of isomers) [E 5, rac-3-(6-(2-(2-(4-((1R,2S)-6-hydroxy-2-phenyl-1,2,3,4-tetrahydronaphthalen-1-yl)phenyl)-2,7-diazaspiro[3.5]nonan-7-yl)-2-oxoethyl)-1-oxo-3,5,6,7-tetrahydropyrrolo[3,4-f]isoindol-2(1H)-yl)piperidine-2,6-dione] |

same assay, conditions: compounds 16 hours, Table A does not say whether T47D or MCF7, read-out: Potency (DC50)

| DC50 [nM] | Compound |
| --- | --- |
| > 100 | C[C@@H]1Cc2c([nH]c3ccccc23)[C@@H](c2ccc(C3CCC4(CC3)CCN(C(=O)CN3Cc5cc6c(cc5C3)C(=O)N(C3CCC(=O)NC3=O)C6=O)CC4)cc2F)N1CC(F)F (stereo partly drawn) [E 479, 6-(2-(9-(4-((1R,3R)-2-(2,2-difluoroethyl)-3-methyl-2,3,4,9-tetrahydro-1H-pyrido[3,4-b]indol-1-yl)-3-fluorophenyl)-3-azaspiro[5.5]undecan-3-yl)-2-oxoethyl)-2-(2,6-dioxopiperidin-3-yl)-6,7-dihydropyrrolo[3,4-f]isoindole-1,3(2H,5H)-dione] |
| > 100 | O=C1CCC(N2C(=O)c3cc4c(cc3C2=O)CN(C2CC3CCC(C2)N3CC2CCN(c3ccc([C@@H]5c6ccc(O)cc6CC[C@@H]5c5ccccc5)cc3)CC2)C4)C(=O)N1 (stereo partly drawn) [E 497, 2-(2,6-dioxopiperidin-3-yl)-6-(8-((1-(4-((1R,2S)-6-hydroxy-2-phenyl-1,2,3,4-tetrahydronaphthalen-1-yl)phenyl)piperidin-4-yl)methyl)-8-azabicyclo[3.2.1]octan-3-yl)-6,7-dihydropyrrolo[3,4-f]isoindole-1,3(2H,5H)-dione] |

— patent US20240190880A1 (THE REGENTS OF THE UNIVERSITY OF MICHIGAN, priority 2021, published 2024)
